Legend:
[1] = biological target: Voltage-dependent N-type calcium channel subunit alpha-1B (Homo sapiens) (UniProt Q00975); test: Inhibition of Calcium Channel N-Type at 10 µM in the Eurofins-Panlabs radioligand binding assay (Eurofins_assay_216000); details: Rattus norvegicus; Compound concentration 10.0 uM
[2] = biological target: ATP-sensitive inward rectifier potassium channel 11 (Cricetulus griseus) (UniProt A0A3L7HHE1); test: Inhibition of Potassium Channel [KATP] at 10 µM in the Eurofins-Panlabs radioligand binding assay (Eurofins_assay_265600); details: Cricetinae; Compound concentration 10.0 uM
Caspase-1 (Homo sapiens) = Caspase-1 (Homo sapiens) (UniProt P29466); test: Inhibition of Peptidase, CASP1 (Caspase 1) at 10 µM in the Eurofins-Panlabs enzyme assay (Eurofins_assay_163000); details: Compound concentration 10.0 uM
Homo sapiens [3] = organism: Homo sapiens; test: Inhibition of Phosphodiesterase PDE4 at compound concentration of 10.0 uM in the Eurofins-Panlabs enzyme assay (Eurofins_assay_154000); type: protein assay; set-up: substrate with concentration 1.01 uM [3 H]cAMP + cAMP, incubation time 20 min, incubation temperature 25 C; details: Compound concentration […]
[4] = biological target: 5-hydroxytryptamine receptor 1B (Homo sapiens) (UniProt P28222); test: Inhibition of Serotonin (5-Hydroxytryptamine) 5-HT1B at 10 µM in the Eurofins-Panlabs radioligand binding assay (Eurofins_assay_271200); details: Compound concentration 10.0 uM
[5] = biological target: T1, 5-hydroxytryptamine receptor 3A (Homo sapiens) (UniProt P46098); test: Inhibition of Serotonin (5-Hydroxytryptamine) 5-HT3 at 10 µM in the Eurofins-Panlabs radioligand binding assay (Eurofins_assay_271910); set-up: ligand concentration 0.69 nM; details: Compound concentration 10.0 uM
T1 sequence (whole entry): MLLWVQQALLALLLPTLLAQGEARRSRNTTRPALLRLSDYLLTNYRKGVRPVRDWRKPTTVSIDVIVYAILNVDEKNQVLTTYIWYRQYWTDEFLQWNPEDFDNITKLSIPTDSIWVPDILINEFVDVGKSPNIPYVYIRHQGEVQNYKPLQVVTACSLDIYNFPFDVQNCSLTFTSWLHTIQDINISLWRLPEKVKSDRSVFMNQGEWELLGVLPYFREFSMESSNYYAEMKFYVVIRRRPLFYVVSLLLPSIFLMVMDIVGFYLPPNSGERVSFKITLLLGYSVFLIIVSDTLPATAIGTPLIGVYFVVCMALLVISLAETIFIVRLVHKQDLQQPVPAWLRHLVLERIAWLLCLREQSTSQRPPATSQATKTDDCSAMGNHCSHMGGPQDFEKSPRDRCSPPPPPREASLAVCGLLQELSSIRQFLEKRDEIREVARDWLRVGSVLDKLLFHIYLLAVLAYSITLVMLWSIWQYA

Caspase-3 (Homo sapiens) = Caspase-3 (Homo sapiens) (UniProt P42574); test: Peptidase, CASP3 (Caspase 3) Eurofins-Panlabs enzyme assay; details: Compound concentration 10.0 uM
[6] = biological target: Prostaglandin E2 receptor EP3 subtype (Homo sapiens) (UniProt P43115); test: Prostanoid EP3 Eurofins-Panlabs radioligand binding assay; set-up: ligand concentration 0.5 nM, non-specific ligand with concentration 10 µM Prostaglandin EŽ2 (PGE2), incubation time 60 min, incubation temperature 25 °C; details: Compound concentration 10.0 uM
[7] = biological target: Polyunsaturated fatty acid lipoxygenase ALOX12 (Homo sapiens) (UniProt P18054); test: Lipoxygenase 12-LO Eurofins-Panlabs enzyme assay; set-up: substrate with concentration; details: Compound concentration 10.0 uM
[8] = biological target: Macrophage metalloelastase (Homo sapiens) (UniProt P39900); test: Peptidase, Matrix Metalloproteinase-12 (MMP-12) Eurofins-Panlabs enzyme assay; details: Compound concentration 10.0 uM
Homo sapiens [9] = organism: Homo sapiens; test: Protein Serine/Threonine Kinase, MAPK14 (p38α) Eurofins-Panlabs enzyme assay; set-up: substrate with concentration 10 µg/mL Myelin Basic Protein (MBP), incubation time 60 min, incubation temperature 25 °C; details: Compound concentration 10.0 uM
Rattus norvegicus = organism: Rattus norvegicus; test: Adrenergic α2, Non-selective Eurofins-Panlabs radioligand binding assay; type: protein assay; details: Compound concentration 10.0 uM
[10] = biological target: Type-2 angiotensin II receptor (Homo sapiens) (UniProt P50052); test: Angiotensin AT2 Eurofins-Panlabs radioligand binding assay; type: protein assay; details: Compound concentration 10.0 uM
Homo sapiens [11] = organism: Homo sapiens; test: Calcitonin Gene-Related Peptide CGRP1 Eurofins-Panlabs radioligand binding assay; type: protein-complex assay; details: Compound concentration 10.0 uM
Homo sapiens [12] = organism: Homo sapiens; test: Estrogen ERbeta Eurofins-Panlabs radioligand binding assay; details: Compound concentration 10.0 uM
[13] = biological target: Sodium-dependent serotonin transporter (Homo sapiens) (UniProt P31645); test: Transporter, Serotonin (5- Hydroxytryptamine) (SERT) Eurofins-Panlabs radioligand binding assay; set-up: ligand concentration 0.15 nM, non-specific ligand with concentration 10 µM Imipramine, incubation time 3 h, incubation temperature 4 °C; details: Compound concentration 10.0 uM
[14] = biological target: T2, Muscarinic acetylcholine receptor M1 (Homo sapiens) (UniProt P11229); test: Agonism inflection point assay
T2 sequence (whole entry): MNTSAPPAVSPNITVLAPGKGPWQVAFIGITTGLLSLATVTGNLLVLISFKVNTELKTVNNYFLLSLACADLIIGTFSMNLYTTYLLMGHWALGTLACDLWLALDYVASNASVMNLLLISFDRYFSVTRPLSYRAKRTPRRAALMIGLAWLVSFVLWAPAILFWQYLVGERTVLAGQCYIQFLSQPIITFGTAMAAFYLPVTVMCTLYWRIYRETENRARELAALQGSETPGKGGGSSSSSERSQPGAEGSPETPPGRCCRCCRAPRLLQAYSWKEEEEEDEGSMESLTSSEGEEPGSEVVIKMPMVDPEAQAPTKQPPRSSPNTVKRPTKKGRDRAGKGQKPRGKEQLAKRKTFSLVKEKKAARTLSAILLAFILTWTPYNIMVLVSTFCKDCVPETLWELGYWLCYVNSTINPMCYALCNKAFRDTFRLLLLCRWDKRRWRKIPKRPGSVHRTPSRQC

[15] = biological target: Alpha-1D adrenergic receptor (Homo sapiens) (UniProt P25100); details: Compound concentration 10.0 uM
[16] = biological target: Endothelin-1 receptor (Homo sapiens) (UniProt P25101); details: Compound concentration 10.0 uM
[17] = biological target: Glutamate NMDA receptor (Rattus norvegicus) (UniProt P35439+Q00959+Q00960+Q00961+Q62645+Q8VHN2+Q9R1M7); details: Compound concentration 10.0 uM
[18] = biological target: Histamine H2 receptor (Homo sapiens) (UniProt P25021); details: Compound concentration 10.0 uM
[19] = biological target: T2, Muscarinic acetylcholine receptor M1 (Homo sapiens); details: Compound concentration 10.0 uM
[20] = biological target: Beta-3 adrenergic receptor (Homo sapiens) (UniProt P13945); details: Compound concentration 10.0 uM
[21] = biological target: T3, 5-hydroxytryptamine receptor 2C (Homo sapiens) (UniProt P28335); details: Compound concentration 10.0 uM
T3 sequence (whole entry): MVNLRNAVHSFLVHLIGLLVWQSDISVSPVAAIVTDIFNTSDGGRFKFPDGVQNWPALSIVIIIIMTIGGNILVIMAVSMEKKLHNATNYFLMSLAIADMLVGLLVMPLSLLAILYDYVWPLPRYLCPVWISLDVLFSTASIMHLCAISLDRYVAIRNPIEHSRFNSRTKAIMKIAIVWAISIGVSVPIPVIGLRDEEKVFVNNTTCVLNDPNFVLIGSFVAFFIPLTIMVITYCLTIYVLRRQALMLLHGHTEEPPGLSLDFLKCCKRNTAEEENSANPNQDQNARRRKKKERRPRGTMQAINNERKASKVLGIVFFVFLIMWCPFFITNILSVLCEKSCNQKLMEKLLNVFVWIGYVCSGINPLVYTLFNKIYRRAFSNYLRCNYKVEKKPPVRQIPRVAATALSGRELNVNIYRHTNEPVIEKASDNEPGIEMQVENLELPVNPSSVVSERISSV

Chain of Endothelin-1 receptor (Homo sapiens) (P25101 whole entry): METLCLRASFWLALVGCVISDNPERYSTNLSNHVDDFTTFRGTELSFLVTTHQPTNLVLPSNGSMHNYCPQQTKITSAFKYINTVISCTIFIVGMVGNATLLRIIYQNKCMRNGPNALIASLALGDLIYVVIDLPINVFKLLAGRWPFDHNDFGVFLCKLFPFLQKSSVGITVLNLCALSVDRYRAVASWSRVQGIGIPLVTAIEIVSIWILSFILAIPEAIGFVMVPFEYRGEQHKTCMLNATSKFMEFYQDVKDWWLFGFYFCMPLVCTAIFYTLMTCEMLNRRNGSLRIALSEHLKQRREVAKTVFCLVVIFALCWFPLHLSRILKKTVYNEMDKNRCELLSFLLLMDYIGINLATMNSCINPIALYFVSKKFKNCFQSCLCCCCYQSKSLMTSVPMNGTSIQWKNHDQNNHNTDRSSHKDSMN
Chain of Macrophage metalloelastase (Homo sapiens) (P39900 106-470 limits assumed): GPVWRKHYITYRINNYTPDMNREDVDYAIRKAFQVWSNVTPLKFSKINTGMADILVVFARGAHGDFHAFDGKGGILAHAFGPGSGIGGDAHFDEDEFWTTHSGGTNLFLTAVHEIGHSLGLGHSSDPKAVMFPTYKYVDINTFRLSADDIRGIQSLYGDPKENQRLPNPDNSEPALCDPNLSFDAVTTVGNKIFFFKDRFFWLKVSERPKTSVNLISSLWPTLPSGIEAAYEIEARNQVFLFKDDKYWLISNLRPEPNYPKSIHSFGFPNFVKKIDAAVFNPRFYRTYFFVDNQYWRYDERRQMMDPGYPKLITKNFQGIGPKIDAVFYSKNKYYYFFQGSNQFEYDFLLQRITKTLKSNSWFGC
Chain of Caspase-3 (Homo sapiens) (P42574 29-175 limits assumed): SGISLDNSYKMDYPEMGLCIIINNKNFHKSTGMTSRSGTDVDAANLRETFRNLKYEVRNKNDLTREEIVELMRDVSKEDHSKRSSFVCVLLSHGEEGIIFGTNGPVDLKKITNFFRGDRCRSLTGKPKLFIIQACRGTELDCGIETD
Chain of Caspase-3 (Homo sapiens) (P42574 176-277 limits assumed): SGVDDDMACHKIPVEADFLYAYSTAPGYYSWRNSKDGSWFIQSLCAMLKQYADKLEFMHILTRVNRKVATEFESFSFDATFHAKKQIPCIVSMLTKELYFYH
Chain of Type-2 angiotensin II receptor (Homo sapiens) (P50052 whole entry): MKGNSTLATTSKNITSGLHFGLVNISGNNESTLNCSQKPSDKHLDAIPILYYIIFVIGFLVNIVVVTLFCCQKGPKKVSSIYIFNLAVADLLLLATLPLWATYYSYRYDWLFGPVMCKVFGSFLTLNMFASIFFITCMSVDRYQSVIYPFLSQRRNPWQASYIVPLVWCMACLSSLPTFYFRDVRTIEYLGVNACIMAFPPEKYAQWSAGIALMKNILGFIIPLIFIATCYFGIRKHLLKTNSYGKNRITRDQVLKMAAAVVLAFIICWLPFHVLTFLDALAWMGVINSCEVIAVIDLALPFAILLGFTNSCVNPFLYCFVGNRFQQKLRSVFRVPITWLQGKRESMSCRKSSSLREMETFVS
Chain of Prostaglandin E2 receptor EP3 subtype (Homo sapiens) (P43115 whole entry): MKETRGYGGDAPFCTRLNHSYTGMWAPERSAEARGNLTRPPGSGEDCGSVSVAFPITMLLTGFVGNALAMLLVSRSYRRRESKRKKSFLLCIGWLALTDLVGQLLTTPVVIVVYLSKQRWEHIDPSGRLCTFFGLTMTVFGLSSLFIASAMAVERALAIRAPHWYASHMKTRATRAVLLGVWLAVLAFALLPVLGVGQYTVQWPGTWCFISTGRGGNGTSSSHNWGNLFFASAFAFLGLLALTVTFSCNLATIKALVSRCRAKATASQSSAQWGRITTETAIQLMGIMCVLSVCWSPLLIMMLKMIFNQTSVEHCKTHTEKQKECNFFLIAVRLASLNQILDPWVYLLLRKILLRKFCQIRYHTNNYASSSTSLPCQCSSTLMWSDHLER
Chain of Histamine H2 receptor (Homo sapiens) (P25021 whole entry): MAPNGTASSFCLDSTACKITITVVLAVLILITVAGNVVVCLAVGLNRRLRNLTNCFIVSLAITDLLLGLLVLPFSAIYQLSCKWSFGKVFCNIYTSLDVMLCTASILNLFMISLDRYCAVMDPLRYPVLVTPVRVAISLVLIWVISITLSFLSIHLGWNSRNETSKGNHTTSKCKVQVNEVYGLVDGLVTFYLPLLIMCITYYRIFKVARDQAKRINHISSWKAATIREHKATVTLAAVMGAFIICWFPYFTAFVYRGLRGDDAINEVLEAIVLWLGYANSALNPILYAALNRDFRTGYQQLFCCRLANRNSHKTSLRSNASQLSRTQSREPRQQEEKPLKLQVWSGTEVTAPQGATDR
Chain of Caspase-1 (Homo sapiens) (P29466 120-297 limits assumed): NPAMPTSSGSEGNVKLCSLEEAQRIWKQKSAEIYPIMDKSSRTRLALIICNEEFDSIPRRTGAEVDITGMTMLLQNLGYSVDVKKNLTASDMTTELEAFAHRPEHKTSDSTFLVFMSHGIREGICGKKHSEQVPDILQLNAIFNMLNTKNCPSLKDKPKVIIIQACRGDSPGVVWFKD
Chain of Caspase-1 (Homo sapiens) (P29466 317-404 limits assumed): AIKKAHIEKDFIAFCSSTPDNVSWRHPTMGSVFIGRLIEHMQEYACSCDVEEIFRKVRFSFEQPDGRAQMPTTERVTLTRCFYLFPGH
Chain of Alpha-1D adrenergic receptor (Homo sapiens) (P25100 whole entry): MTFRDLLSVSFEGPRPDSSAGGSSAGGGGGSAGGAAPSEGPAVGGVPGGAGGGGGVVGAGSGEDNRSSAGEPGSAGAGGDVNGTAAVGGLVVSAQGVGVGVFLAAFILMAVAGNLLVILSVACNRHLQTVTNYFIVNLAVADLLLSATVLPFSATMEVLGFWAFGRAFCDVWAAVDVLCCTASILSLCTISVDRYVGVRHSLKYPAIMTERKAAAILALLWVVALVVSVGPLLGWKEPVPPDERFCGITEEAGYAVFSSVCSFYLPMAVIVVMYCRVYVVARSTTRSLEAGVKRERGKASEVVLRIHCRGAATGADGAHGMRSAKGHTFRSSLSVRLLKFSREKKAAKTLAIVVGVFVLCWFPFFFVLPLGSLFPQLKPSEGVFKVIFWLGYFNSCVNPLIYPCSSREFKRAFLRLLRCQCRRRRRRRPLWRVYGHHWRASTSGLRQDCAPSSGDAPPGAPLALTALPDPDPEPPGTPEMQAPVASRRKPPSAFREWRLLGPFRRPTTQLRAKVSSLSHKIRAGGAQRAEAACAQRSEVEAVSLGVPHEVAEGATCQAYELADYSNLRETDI
Chain of ATP-sensitive inward rectifier potassium channel 11 (Cricetulus griseus) (A0A3L7HHE1 as listed by the source): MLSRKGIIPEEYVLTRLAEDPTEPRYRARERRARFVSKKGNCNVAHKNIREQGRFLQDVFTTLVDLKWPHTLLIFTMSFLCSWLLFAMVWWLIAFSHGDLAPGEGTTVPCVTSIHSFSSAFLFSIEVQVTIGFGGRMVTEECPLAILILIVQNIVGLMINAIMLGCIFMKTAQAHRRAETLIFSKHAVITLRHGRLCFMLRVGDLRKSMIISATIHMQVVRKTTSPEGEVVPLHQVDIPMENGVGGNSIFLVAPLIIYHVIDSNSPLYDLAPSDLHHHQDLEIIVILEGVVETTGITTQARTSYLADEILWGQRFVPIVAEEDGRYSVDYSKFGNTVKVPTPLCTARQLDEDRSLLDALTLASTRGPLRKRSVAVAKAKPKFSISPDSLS
Chain of 5-hydroxytryptamine receptor 1B (Homo sapiens) (P28222 whole entry): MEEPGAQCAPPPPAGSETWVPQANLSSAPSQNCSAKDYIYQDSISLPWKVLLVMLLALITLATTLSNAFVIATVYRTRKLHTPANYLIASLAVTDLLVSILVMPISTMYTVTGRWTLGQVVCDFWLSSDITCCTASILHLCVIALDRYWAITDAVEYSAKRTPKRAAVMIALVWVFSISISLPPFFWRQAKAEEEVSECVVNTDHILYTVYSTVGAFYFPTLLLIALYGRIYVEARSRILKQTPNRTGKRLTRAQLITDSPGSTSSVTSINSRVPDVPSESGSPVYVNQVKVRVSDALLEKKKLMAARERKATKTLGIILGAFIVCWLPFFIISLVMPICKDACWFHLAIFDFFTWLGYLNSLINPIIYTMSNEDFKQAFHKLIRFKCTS
Chain of Beta-3 adrenergic receptor (Homo sapiens) (P13945 whole entry, looked up): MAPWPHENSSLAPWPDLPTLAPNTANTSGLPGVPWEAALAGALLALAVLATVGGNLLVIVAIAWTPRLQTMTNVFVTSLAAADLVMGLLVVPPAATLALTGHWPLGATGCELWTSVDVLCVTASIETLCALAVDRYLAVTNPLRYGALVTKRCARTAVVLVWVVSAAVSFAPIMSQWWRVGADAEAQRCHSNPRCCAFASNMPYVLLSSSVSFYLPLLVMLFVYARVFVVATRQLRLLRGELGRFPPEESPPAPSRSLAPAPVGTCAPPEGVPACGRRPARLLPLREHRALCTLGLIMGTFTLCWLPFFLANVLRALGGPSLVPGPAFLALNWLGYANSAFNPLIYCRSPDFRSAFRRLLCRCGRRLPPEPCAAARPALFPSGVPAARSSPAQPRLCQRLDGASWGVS
Chain of Polyunsaturated fatty acid lipoxygenase ALOX12 (Homo sapiens) (P18054 whole entry): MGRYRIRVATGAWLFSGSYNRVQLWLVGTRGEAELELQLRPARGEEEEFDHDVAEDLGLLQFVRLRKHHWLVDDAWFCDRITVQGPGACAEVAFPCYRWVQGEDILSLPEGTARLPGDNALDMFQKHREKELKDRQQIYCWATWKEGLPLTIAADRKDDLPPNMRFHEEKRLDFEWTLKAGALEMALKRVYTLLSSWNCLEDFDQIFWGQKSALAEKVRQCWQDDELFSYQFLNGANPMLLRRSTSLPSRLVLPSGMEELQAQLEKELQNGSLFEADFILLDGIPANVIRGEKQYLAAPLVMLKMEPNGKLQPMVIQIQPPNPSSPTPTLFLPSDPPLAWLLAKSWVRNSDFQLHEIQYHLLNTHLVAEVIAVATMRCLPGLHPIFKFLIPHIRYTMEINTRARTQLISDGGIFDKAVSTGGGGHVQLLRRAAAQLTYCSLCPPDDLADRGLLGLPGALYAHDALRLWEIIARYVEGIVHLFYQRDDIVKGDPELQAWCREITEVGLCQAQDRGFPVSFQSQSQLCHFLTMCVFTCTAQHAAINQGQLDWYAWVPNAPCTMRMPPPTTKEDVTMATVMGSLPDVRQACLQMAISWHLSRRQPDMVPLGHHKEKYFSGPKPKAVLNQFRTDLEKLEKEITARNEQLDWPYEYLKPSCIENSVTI

N#CC1(c2ccccn2)CCN(Cc2cc(C(=O)O)c(=O)n3ccccc23)CC1 [MSD-M1PAM]
inactive: inhibition [1] -3% | inhibition [2] 1% | inhibition (Caspase-1 (Homo sapiens)) 7% | inhibition (Homo sapiens [3]) 8% | inhibition [4] -2% | inhibition [5] 17% | inhibition (Caspase-3 (Homo sapiens)) 6% | inhibition [6] 3% | inhibition [7] 13% | inhibition [8] 12% | inhibition (Homo sapiens [9]) -3% | inhibition (Rattus norvegicus) -7% | inhibition [10] -2% | inhibition (Homo sapiens [11]) -6% | inhibition (Homo sapiens [12]) 8% | inhibition [13] 9% | Agonism inflection point [14] 7.38 µM | inhibition [15] -5.73% | inhibition [16] -1% | inhibition [17] 25% | inhibition [18] -3% | inhibition [19] 3% | inhibition [20] -5% | inhibition [21] -8%

From ChEMBL document CHEMBL4507295 (2021)
